Test results taken from patent US20050080113A1, “Medicinal compositions” (priority 2001, published 2005).

SMILES | melting point [°C]
CCc1nc(-c2cccc(Cl)c2)c(-c2ccnc(N)c2)s1 [H 20-1, 4 [2 ethyl-4 (3-chlorophenyl)-1,3 thiazol-5 yl]-2 pyridylamine] | 131 to 132
CCc1nc(-c2ccccc2)c(-c2ccnc(N)c2)s1 [H 20-2, 4 (2 ethyl-4 phenyl-1,3-thiazol-5 yl)-2 pyridylamine] | 158 to 159
CCc1nc(-c2ccc(F)cc2)c(-c2ccnc(N)c2)s1 [H 20-3, 4 [2 ethyl-4 (4-fluorophenyl)-1,3 thiazol-5 yl]-2 pyridylamine] | 140 to 141
CCc1nc(-c2cccc(C(F)(F)F)c2)c(-c2ccnc(N)c2)s1 [H 20-4, 4 [2 ethyl-4 [3-(trifluoromethyl)phenyl]-1,3 thiazol-5 yl]-2 pyridylamine] | 117 to 118
CCc1nc(-c2ccc(SC)cc2)c(-c2ccnc(N)c2)s1 [H 20-5, 4 [2 ethyl-4 [4-(methylthio)phenyl]-1,3 thiazol-5 yl]-2 pyridylamine] | 119 to 120
CCc1nc(-c2cccc(F)c2)c(-c2ccnc(N)c2)s1 [H 20-6, 4 [2 ethyl-4 (3-fluorophenyl)-1,3 thiazol-5 yl]-2 pyridylamine] | 153 to 154
CCc1nc(-c2ccc(Cl)cc2)c(-c2ccnc(N)c2)s1 [H 20-7, 4 [4 (4 chlorophenyl)-2-ethyl-1,3 thiazol-5 yl]-2 pyridylamine] | 136 to 137
CCc1cccc(-c2nc(CC)sc2-c2ccnc(N)c2)c1 [H 20-8, 4 [2 ethyl-4 (3-ethylphenyl)-1,3 thiazol-5 yl]-2 pyridylamine] | 128 to 129
CCc1nc(-c2ccc(F)c(C)c2)c(-c2ccnc(N)c2)s1 [H 20-9, 4 [2 ethyl-4 (4 fluoro-3-methylphenyl)-1,3 thiazol-5 yl]-2 pyridylamine] | 134 to 135
CCc1nc(-c2cccc(C(C)C)c2)c(-c2ccnc(N)c2)s1 [H 20-10, 4 [2 ethyl-4 [3 (1-methylethyl)phenyl]-1,3 thiazol-5 yl]-2 pyridylamine] | 80 to 81
CCCc1cccc(-c2nc(CC)sc2-c2ccnc(N)c2)c1 [H 20-11, 4 [2 ethyl-4 (3-propylphenyl)-1,3 thiazol-5 yl]-2 pyridylamine] | 72 to 74
CCc1nc(-c2cccs2)c(-c2ccnc(N)c2)s1 [H 20-12, 4 [2 ethyl-4 (2 thienyl)-1,3 thiazol-5 yl]-2 pyridylamine] | 159 to 160
Cc1cccc(-c2ncsc2-c2ccnc(N)c2)c1 [H 27-1, 4 [4 (3 methylphenyl)-1,3-thiazol-5 yl]-2 pyridylamine] | 91 to 92
Cc1nc(-c2cccc(Cl)c2)c(-c2ccnc(N)c2)s1 [H 27-2, 4 [4 (3 chlorophenyl)-2-methyl-1,3 thiazol-5 yl]-2 pyridylamine] | 142 to 143
CCc1nc(-c2cccc(C)c2)c(-c2ccnc(NC(=O)C3CCCC3)c2)s1 [H 29-1, N-[4 [2 ethyl-4 (3-methylphenyl)-1,3 thiazol-5 yl]-2-pyridyl]cyclopentanecarboxamide] | 123 to 125
CC(=O)Nc1cc(-c2sc(C)nc2-c2cccc(Cl)c2)ccn1 [H 30-1, N-[4-[4-(3-chlorophenyl)-2-methyl-1,3-thiazol-5-yl]-2-pyridyl]acetamide] | 112 to 115
CCCc1nc(-c2cccc(Cl)c2)c(-c2ccnc(NC(C)=O)c2)s1 [H 30-3, N-[4-[4-(3-chlorophenyl)-2-propyl-1,3-thiazol-5-yl]-2-pyridyl]acetamide] | 144 to 145
CCc1nc(-c2cccs2)c(-c2ccnc(NC(C)=O)c2)s1 [H 30-4, N-[4 [2 ethyl-4 (2-thienyl)-1,3 thiazol-5 yl]-2 pyridyl]acetamide] | 154 to 155
CSc1ccc(-c2nc(-c3cccc(Cl)c3)c(-c3ccnc(NC(C)=O)c3)s2)cc1 [H 30-5, N-[4 [4 (3 chlorophenyl)-2 [4 (methylthio)phenyl]-1,3 thiazol-5 yl]-2-pyridyl]acetamide] | 207 to 208
CCC(=O)Nc1cc(-c2sc(C)nc2-c2cccc(Cl)c2)ccn1 [H 30-7, N-[4-[4-(3-chlorophenyl)-2-methyl-1,3-thiazol-5-yl]-2-pyridyl]propionamide] | 134 to 135
CCC(=O)Nc1cc(-c2sc(CC)nc2-c2cccc(Cl)c2)ccn1 [H 30-8, N-[4-[4-(3-chlorophenyl)-2-ethyl-1,3-thiazol-5-yl]-2-pyridyl]propionamide] | 132 to 133
CCCc1nc(-c2cccc(Cl)c2)c(-c2ccnc(NC(=O)CC)c2)s1 [H 30-9, N-[4-[4-(3-chlorophenyl)-2-propyl-1,3-thiazol-5-yl]-2-pyridyl]propionamide] | 103 to 104

SMILES | melting point [°C]
CCC(=O)Nc1cc(-c2sc(CC)nc2-c2cccs2)ccn1 [H 30-10, N-[4 [2 ethyl-4 (2-thienyl)-1,3 thiazol-5 yl]-2 pyridyl]propionamide] | 187 to 188
CCC(=O)Nc1cc(-c2sc(-c3ccc(SC)cc3)nc2-c2cccc(Cl)c2)ccn1 [H 30-11, N-[4 [4 (3 chlorophenyl)-2 [4 (methylthio)phenyl]-1,3 thiazol-5 yl]-2-pyridyl]propionamide] | 187 to 188
CSc1ccc(-c2nc(-c3cccc(Cl)c3)c(-c3ccnc(NC(=O)C(C)(C)C)c3)s2)cc1 [H 30-12, N-[4 [4 (3 chlorophenyl)-2 [4 (methylthio)phenyl]-1,3 thiazol-5 yl]-2-pyridyl]pivalamide] | 119 to 120
CCc1nc(-c2cccc(C)c2)c(-c2ccnc(NCC3CCCC3)c2)s1 [H 32, N-(cyclopentylmethyl)-4 [2-ethyl-4 (3 methylphenyl)-1,3 thiazol-5 yl]-2 pyridylamine] | 67 to 69
Cc1cccc(-c2nc(N)sc2-c2ccnc(N3CCOCC3)c2)c1 [H 34-1, [4 (3 methylphenyl)-5 (2-morpholino-4 pyridyl)-1,3 thiazol-2 yl]amine] | 188 to 189
Cc1cccc(-c2nc(N)sc2-c2ccnc(NC3CCCC3)c2)c1 [H 34-3, [5 (2 cyclopentylamino-4-pyridyl)-4 (3 methylphenyl)-1,3 thiazol-2 yl]amine] | 169 to 170
Nc1nc(-c2cccc(Cl)c2)c(-c2ccnc(N3CCCCC3)c2)s1 [H 35-1, [4 (3 chlorophenyl)-5 (2-piperidino-4 pyridyl)-1,3 thiazol-2 yl]amine] | 206 to 208
Cc1cccc(-c2nc(-c3ccc(S(C)(=O)=O)cc3)sc2N2C=CC=CC2N2CCCCC2)c1 (stereo not shown) [H 35-2, 4 (3 methylphenyl)-2 (4-methylsulfonylphenyl)-5 (2 piperidino-1 pyridyl)-1,3 thiazole] | 155 to 157
Nc1nc(-c2ccc(F)cc2)c(-c2ccnc(NC3CCCCC3)c2)s1 [H 36-1, [5 (2 cyclohexylamino-4-pyridyl)-4 (4 fluorophenyl)-1,3 thiazol-2 yl]amine] | 194 to 195
CNc1nc(-c2cccc(C)c2)c(-c2ccnc(NC3CCCCC3)c2)s1 [H 36-2, N-methyl-[5 (2-cyclohexylamino-4 pyridyl)-4 (3 methylphenyl)-1,3 thiazol-2-yl]amine] | 211 to 212
CNc1nc(-c2cccc(C)c2)c(-c2ccnc(NC3CCCC3)c2)s1 [H 36-3, N-methyl-[5 (2-cyclopentylamino-4 pyridyl)-4 (3 methylphenyl)-1,3 thiazol-2-yl]amine] | 170 to 172
CCc1nc(-c2cccc(C)c2)c(-c2ccnc(NC3CCCCC3)c2)s1 [H 36-4, N-cyclohexyl-4-[2-ethyl-4-(3-methylphenyl)-1,3-thiazol-5-yl]-2-pyridylamine] | 110 to 112
Cc1cccc(-c2nc(-c3ccc(S(C)(=O)=O)cc3)sc2-c2ccnc(NC3CCCCC3)c2)c1 [H 36-5, N-cyclohexyl-4-[4-(3-methylphenyl)-2-(4-methylsulfonylphenyl)-1,3-thiazol-5-yl]-2-pyridylamine] | 197 to 199
Cc1cccc(-c2nc(-c3ccc(S(C)(=O)=O)cc3)sc2-c2ccnc(NC3CCCC3)c2)c1 [H 36-7, N-cyclopentyl-4-[4-(3-methylphenyl)-2-(4-methylsulfonylphenyl)-1,3-thiazol-5-yl]-2-pyridylamine] | 154 to 156
Cc1cccc(-c2nc(-c3ccc(S(C)(=O)=O)cc3)sc2-c2ccnc(N3CCOCC3)c2)c1 [H 36-8, 4 (3 methylphenyl)-2 (4-methylsulfonylphenyl)-5 (2 morpholino-4 pyridyl)-1,3 thiazole] | 200 to 202
CCc1nc(-c2cccc(C)c2)c(-c2ccnc(N3CCOCC3)c2)s1 [H 36-9, 2 ethyl-4 (3-methylphenyl)-5 (2 morpholino-4 pyridyl)-1,3 thiazole] | 69 to 71
CCc1nc(-c2cccc(Cl)c2)c(-c2ccnc(NC3CCCC3)c2)s1 [H 36-11, 4-[4-(3-chlorophenyl)-2-ethyl-1,3-thiazol-5-yl]-N-cyclopentyl-2-pyridylamine] | 110 to 111
Cc1cccc(-c2nc(-c3ccc(S(C)(=O)=O)cc3)sc2-c2ccnc(N(C)C3CCCCC3)c2)c1 [H 37-2, N-cyclohexyl-N-methyl-4-[4 (3 methylphenyl)-2 (4 methylsulfonylphenyl)-1,3 thiazol-5-yl]-2 pyridylamine] | 173 to 174
Cc1cccc(-c2nc(-c3ccc(S(C)(=O)=O)cc3)sc2-c2ccnc(NCC3CCCCC3)c2)c1 [H 37-3, N-cyclohexylmethyl-4 [4-(3 methylphenyl)-2 (4 methylsulfonylphenyl)-1,3 thiazol-5-yl]-2 pyridylamine] | 157 to 159
Cc1cccc(-c2nc(-c3ccc(S(C)(=O)=O)cc3)sc2-c2ccnc(N3CCCC3)c2)c1 [H 37-4, 4 (3 methylphenyl)-2 (4-methylsulfonylphenyl)-5 [2 (1 pyrrolidinyl)-4 pyridyl]-1,3-thiazole] | 199 to 201
Cc1cccc(-c2nc(-c3ccc(S(C)(=O)=O)cc3)sc2-c2ccnc(N3CCN(C)CC3)c2)c1 [H 37-5, 4 (3 methylphenyl)-5 [2-(4 methyl-1 piperazinyl)-4 pyridyl]-2 (4-methylsulfonylphenyl)-1,3 thiazole] | 153 to 154
